Several values for one entry are separate records, joined by “and”; a condition that tells them apart may be missing. Equal values may be shown once. Read-outs that look alike come from different tables or passages of the source. Bridge positions count the residues as written; N and C are the ends. Peptide text beside a SMILES is read from it.
Key:
MUC5AC = MUC5AC (Homo sapiens, UniProt P98088); assay: Biolayer interferometry binding kinetics, MUC5AC; details: for Kd: PBS-HCl pH 1.82, koff/kon, read-out: dissociation constant kd
Experimental: (§1) Binding kinetics for the successful mucin-binding hits were measured using biolayer interferometry (BLI).[73] In BLI, a protein target is immobilized on the surface of a biosensor, creating a thin optical layer. These coated sensors are then exposed to a solution of the ligand (in this case, the small molecule and peptide hits), allowing the ligand to associate and dissociate with the protein target. This association/dissociation behavior changes the thickness of the optical layer, and the instrument correlates this change in thickness with binding and desorption. By testing different concentrations of the ligand, the kinetic rate constants and dissociation constant (kd) can be measured by fitting the resulting binding curves according to a binding model.[73]
(§2) For the analysis of mucin-binding kinetics, mucins MUC2 and MUC5AC were used as the protein targets, and the “hits” were used as the ligands of interest. Mucins were biotinylated and suspended in buffers with different pH levels (MUC2 in PBS with pH 7.2 and PBS-HCl with pH 3.35, MUC5AC in PBS-HCl with pH 1.82) that mimic the pH of the normal small intestine,[74] the small intestine during inflammatory bowel disease,[75] and the normal stomach,[76] respectively. Hits were dissolved in the same buffer to minimize the optical differences among the buffer, mucin solution, and analyte solution. BLI was carried out on an Octet RED96 platform in five steps. First, a baseline step of 60 s was carried out. Then, biotinylated mucins were immobilized onto the surface of a streptavidin sensor during a loading step of 300 s. Next, the loaded tips were allowed to re-equilibrate in another baseline step for 60 s. Following that, the loaded tips were allowed to incubate in a solution of analyte (an association step) for 300 s; this allowed the hits to interact with the mucin, changing the thickness of the optical layer and generating a response from the optical measurement. Finally, the tips were moved to buffer wells, and the hits were allowed to dissociate from the mucin for 300 s. Data were analyzed, and ligand-only and hit-only controls were used as references to properly characterize the binding performance of the hits.
(§3) Binding of the hits to the mucins generally follows one of two different mechanisms. The first is a 1:1 bimolecular model in which the molecule binds to a specific spot on the mucin. The reaction can, therefore, be described using the following model:[77] [drawing 3]
(§4) In this model, kon represents the rate of association of the hit to the mucin, while koff represents the rate of dissociation of the molecule from the molecule-mucin complex. The dissociation constant is calculated as the ratio of these two rate constants.
(§5) The second model is a 2:1 heterogeneous model, in which the molecule binds at two locations on the mucin (each with its own kinetic rate constants and dissociation constant).[78] These reactions are described using the following model: [drawing 4]
(§6) The rate constants for each interaction are equivalent to those of the single interaction present in the 1:1 model, while each interaction has its own dissociation constant. This was calculated similarly to the 1:1 model.

MUC2 = MUC2 (Homo sapiens, UniProt Q02817); assay: Biolayer interferometry binding kinetics, MUC2; details: Octet RED96, biotinylated MUC2 on streptavidin sensor; for Kd: PBS pH 7.2, koff/kon, read-out: dissociation constant kd; for kon: PBS pH 7.2, association 300 s, dissociation 300 s
Experimental: as §1, §2, §3, §4, §5, §6

[1] = test system: MUC5AC-containing stomach tissue; assay: Ex vivo fluorescent binding to stomach tissue; parameters: species or system porcine; details: MUC5AC-selective peptides to stomach, scaled between free AF647 (0) and WGA-AF647 (1), mean across trials n = 3
Description: (§7) After identifying the peptide hits for each mucin, we tested their binding in an ex vivo setting (Figure S1), evaluating their interaction with mucin-containing porcine tissue and semiquantitatively representing it through fluorescent imaging (Figure 3a). The cyclic peptides were synthesized and conjugated to a fluorophore, Alexa Fluor 647 (AF647), at the N-terminus to allow fluorescent imaging to be used to semiquantitatively measure the peptides’ ex vivo tissue binding, compared to free AF647 and AF647 conjugated to wheat germ agglutinin (WGA), a known lectin for glycoproteins.[40] […] Porcine GI tissue was used due to its similarity in mucin expression compared to human GI tissue and its capacity to source large surface areas of tissue for experiments.[41],[42] Representative IVIS images are shown in Figure 3b-e, where the first four columns represent the four identified peptides (M2.1–M2.4 in Figure 3b,c, M5.1–M5.4 in Figure 3d,e), the fifth column represents WGA-AF647, and the sixth column represents AF647. The “score” results for the peptide ligands are presented in Figure 3f,g for the mucins of interest, with Tables S2–S5 and Figure S3 detailing results for the other tissues (the equation for calculating the “score” is found in the Materials and Methodssection). […] We also examined selectivity by incubating peptides on nontarget tissues. Figure 3h,i depicts the “selectivity” results for the MUC2-selective and MUC5AC-selective peptides, respectively. Selectivity was calculated by determining the ratio of the “score” for a particular mucin to the sum of the “scores” for all mucins (see the Materials and Methods section for the equation used).
The top-performing hits from phage display were tested on ex vivo segments of porcine mucin-containing tissues (jejunal, stomach, and esophageal tissues) obtained from local abattoirs or laboratory-maintained pigs. Tissue was used either immediately after acquisition or after storage at −80 °C; tissue was used at most 1 week after acquisition and storage at −80 °C. After acquisition and equilibration to room temperature, the tissue was washed twice with 25 mL (each) of cold 1× PBS to remove undigested food and other debris. After washing and cleaning, the tissue was mounted between two magnetic plates with holes corresponding to a 48-well plate, as previously described,[72] such that the luminal side of the tissue was facing up (Figure S1). After the tissue was mounted, the amount of peptide/protein corresponding to 40 μg of AF647 was suspended in 200 μL of 1× PBS and added to the wells created by the magnetic plates. This was done 3× for each formulation to perform the experiment in triplicate. In addition, plain 1× PBS was added to one well to serve as the background measurement. […] After washing was complete, fluorescence imaging was performed using an IVIS Spectrum fluorescent imaging system (PerkinElmer), with an automatically calculated exposure time (usually ∼1 s), a 20 cm × 20 cm field of view, and an excitation/emission of 640/680 nm, respectively. The imaging results were analyzed using Living Image software to calculate the total fluorescence intensity for each well, and the results for each hit or control were averaged across different wells. […]
(§8) To better account for tissue-to-tissue variability, the results for each trial were reported as scores rather than using the raw fluorescence intensity. […]

[2] = test system: MUC2-containing intestinal tissue (jejunal); assay: Ex vivo fluorescent binding to small intestine tissue; parameters: species or system porcine; details: MUC2-selective peptides to small intestine, scaled between free AF647 (0) and WGA-AF647 (1), mean across trials n = 3
Description: as §7
The top-performing hits from phage display were tested on ex vivo segments of porcine mucin-containing tissues (jejunal, stomach, and esophageal tissues) obtained from local abattoirs or laboratory-maintained pigs. Tissue was used either immediately after acquisition or after storage at −80 °C; tissue was used at most 1 week after acquisition and storage at −80 °C. After acquisition and equilibration to room temperature, the tissue was washed twice with 25 mL (each) of cold 1× PBS to remove undigested food and other debris. After washing and cleaning, the tissue was mounted between two magnetic plates with holes corresponding to a 48-well plate, as previously described,[72] such that the luminal side of the tissue was facing up (Figure S1). After the tissue was mounted, the amount of peptide/protein corresponding to 40 μg of AF647 was suspended in 200 μL of 1× PBS and added to the wells created by the magnetic plates. This was done 3× for each formulation to perform the experiment in triplicate. In addition, plain 1× PBS was added to one well to serve as the background measurement. After the peptides were added, the plate setup was covered with aluminum foil and allowed to incubate for 1 h at room temperature with gentle agitation (50 rpm). After incubation, the nonbinding peptides were removed by pouring out the solutions onto a clean paper towel, and the setup was washed three times by adding 200 μL of 1× PBS to each well and gently agitating the setup for 30 s before removing the washing solution. After washing was complete, fluorescence imaging was performed using an IVIS Spectrum fluorescent imaging system (PerkinElmer), with an automatically calculated exposure time (usually ∼1 s), a 20 cm × 20 cm field of view, and an excitation/emission of 640/680 nm, respectively. The imaging results were analyzed using Living Image software to calculate the total fluorescence intensity for each well, and the results for each hit or control were averaged across different wells. The negative control used was unconjugated AF647, while the positive control was WGA-AF647, since WGA is a known lectin that binds glycoproteins.
as §8

[3] = BLI, Octet RED96, biotinylated MUC5AC on streptavidin sensor

Row | Compound | Kd (MUC5AC; [3]) | Kd (MUC2; BLI) | further results
1 | C[C@@H]1NC(=O)[C@H](CCCNC(=N)N)NC(=O)[C@H](CC(=O)O)NC(=O)[C@@H]2CCCN2C(=O)[C@H](CCCNC(=N)N)NC(=O)CNC(=O)[C@H](CC(=O)O)NC(=O)[C@@H](N)CSSC[C@@H](C(=O)O)NC1=O [Peptide M2.3] (H-CDGRPDRAC-OH; disulfide 1-9) | 65.4 nM | 7.11 nM | –
2 | CC(C)C[C@@H]1NC(=O)[C@H](CO)NC(=O)[C@H](CO)NC(=O)[C@H](C)NC(=O)[C@@H](N)CSSC[C@@H](C(=O)O)NC(=O)[C@H](CCCNC(=N)N)NC(=O)[C@H](C(C)C)NC(=O)[C@H](CO)NC1=O [Peptide M2.4] (H-CASSLSVRC-OH; disulfide 1-9) | – | 112 nM | kon (MUC5AC; pH 1.82, BLI, Octet RED96, biotinylated MUC5AC on streptavidin sensor, PBS-HCl pH 1.82, association 300 s, dissociation 300 s): 29500 M⁻¹ s⁻¹; kon (MUC2; pH 7.2, BLI, read-out: kon): 57700 M⁻¹ s⁻¹
3 | Alexa Fluor 647 [Free dye, reference compound] | – | – | Overall nanoparticle “score” [1]: 0; Overall nanoparticle “score” [2]: 0

Now from value to compound, other results behind:

Row | Kd (MUC5AC; [3]) | Kd (MUC2; BLI) | Compound | further results
4 | 1.54 nM | – | CSCC[C@@H]1NC(=O)CNC(=O)[C@H](CCSC)NC(=O)[C@H]([C@@H](C)O)NC(=O)[C@H](CC(C)C)NC(=O)[C@H](C)NC(=O)[C@H]([C@@H](C)O)NC(=O)[C@@H](N)CSSC[C@@H](C(=O)O)NC1=O [Peptide M5.3] (H-CTALTMGMC-OH; disulfide 1-9) | kon (MUC2; BLI): 6.33 × 10^4 M^–1s^–1 and ~10^4 M^–1s^–1
5 | 7.88 nM | 112 nM | CC[C@H](C)[C@@H]1NC(=O)[C@@H]2CCCN2C(=O)CNC(=O)[C@@H](N)CSSC[C@@H](C(=O)O)NC(=O)[C@H](CC(C)C)NC(=O)[C@H](C)NC(=O)[C@H]([C@@H](C)O)NC(=O)[C@H](Cc2ccc(O)cc2)NC1=O [Peptide M5.2] (H-CGPIYTALC-OH; disulfide 1-9) | kd for MUC5AC binding compared with MUC2 binding (stronger) (MUC5AC; BLI, MUC5AC pH 1.82 vs MUC2): 2 orders of magnitude

— article PMC12020424, “Identification and Validation of Cyclic Peptides with Mucin-Selective, Location-Specific Binding in the Gastrointestinal Tract” (ACS Nano, 2025)
